Results as given in US4661483A, “Antihypercholesterolemic lactone compounds, compositions and use” (Merck & Co., Inc., priority 1986, dated 1987).

Test system: HMG-CoA reductase
Test: HMG-CoA Reductase Inhibition Assay (in vitro, [14C]HMG-CoA to mevalonolactone)
Assay type: biochemical
Conditions: IC50 compared with that of compactin determined simultaneously; compactin assigned 100 (footnote b60 prints 10); tested as sodium salt of dihydroxy acid form; solubilized rat liver microsomal enzyme
Method: The intrinsic HMG-CoA reductase inhibition activity of the claimed compounds is measured in the in vitro protocol published in J. Med. Chem., 28, p. 347-358 (1985) and described below:
Isolation of HMG-CoA Reductase
Male Holtzman Sprague-Dawley rats (225-250 g) were kept on reversed lighting and fed Purina rat chow containing 3% cholestyramine for 7 days preceding their sacrifice by CO2 asphyxiation. Livers were removed 6 hours into the dark cycle and used immediately to prepare microsomes. HMG-CoA reductase was solubilized from the freshly prepared microsome by the method of Heller and Shrewsbury [J. Biol. Chem., 1976, 251, 3815] and purified through the second ammonium sulfate precipitation step as described by Kleinsek et al. [Proc. Natl. Acad. Sci. USA, 1977, 74, 1431]. The enzyme preparation was tested for HMG-CoA reductase potency and diluted with 100 mM phosphate buffer (pH 7.2) so that 100 μl of the enzyme solution, when added to the assay control, gave a value of 50,000-60,000 dpm. The enzyme preparation was stored at -80° C.
HMG-CoA Reductase Inhibition Assay
The assay is essentially the procedure of Shefer et al. [J. Lipid Res., 1972, 13, 402]. The complete assay medium contained the following in a total volume of 0.8 ml: phosphate buffer, pH 7.2, 100 mM; MgCl2, 3 mM; NADP, 3 mM; glucose 6-phosphate, 10 mM; glucose-6-phosphate dehydrogenase, 3 enzyme units; reduced glutathione, 50 mM; HMG-CoA (glutaryl-3-^14 C, New England Nuclear), 0.2 mM (0.1 μCi); and partially purified enzyme stock solution, 100 μL.
Test compounds or compactin (after first being converted to the sodium salt of their dihydroxy acid form in situ by addition of 1N NaOH (1 equivalent) were added to the assay system in 10-μL volumes at multiconcentration levels. After a 40-minute incubation at 37° C. with shaking and exposure to air, the reaction was stopped by the addition of 0.4 mL of 8N HCl. After an additional 30-minute incubation period at 37° C. to ensure the complete lactonization of mevalonic acid to mevalonolactone, 0.2 ml of the mixture was added to an 0.5×5.0 cm column containing 100-200 mesh Bio-Rex 5, chloride form (Bio-Rad), wetted with distilled water, as described by Alberts et al. [J. Proc. Natl. Acad. Sci. U.S.A., 1980, 77, 3957]. The unreacted [^14 C]HMG-CoA was absorbed on the resin and the [^14 C]mevalonolactone was eluted with distilled water (2×1 ml) directly into 7-ml scintillation vials. Five milliliters of Aquasol-2 (New England Nuclear) was added to each vial, and radioactivity was measured in a Packard Tri Carb Prias scintillation counter. IC50 values were determined by plotting percentage inhibition against test compound concentration and fitting a straight line to the resulting data by using the least-squares method. For estimation of relative inhibitory potencies, compactin was assigned a value of 100 and the IC50 value of the test compound was compared with that of compactin determined simultaneously.

Point of comparison: CC1C=C2C=CC(C)C(CCC(O)CC(O)CC(=O)O)C2C(OC(=O)C(C)(C)C(=O)N(C)C)C1 (centres unmarked), “Relative Potency” value 34. Against it:
- CCN(CC)C(=O)C(C)(C)C(=O)OC1CC(C)C=C2C=CC(C)C(CCC(O)CC(O)CC(=O)O)C21 (centres unmarked) — lower, 22
- CC1C=C2C=CC(C)C(CCC(O)CC(O)CC(=O)O)C2C(OC(=O)C(C)(C)C(=O)N2CCOCC2)C1 (centres unmarked) — lower, 20
- CC1C=C2C=CC(C)C(CCC(O)CC(O)CC(=O)O)C2C(OC(=O)C(C)(C)CC(=O)N(C)C)C1 (centres unmarked) — lower, 16
- CNC(=O)C(C)(C)C(=O)OC1CC(C)C=C2C=CC(C)C(CCC(O)CC(O)CC(=O)O)C21 (centres unmarked) — lower, 13
